Measurements from the NIST ThermoML archive (doi:10.1021/je5008372).

Assays:
[1] = refractive index (Na D-line) (dimensionless); mn = molality of the nth substance listed, in mol/kg; details: 86.8 kPa, Liquid, Standard Abbe refractometry
[2] = mn = molality of the nth substance listed, in mol/kg; details: 86.8 kPa, Liquid; for viscosity: Capillary tube (Ostwald / Ubbelohde) method; for speed of sound: Sing-around technique in a fixed-path interferometer; for mass density: Vibrating tube method
[3] = refractive index (Na D-line) (dimensionless); details: 86.8 kPa, Liquid, Standard Abbe refractometry
[4] = 86.8 kPa, Liquid; for viscosity: Capillary tube (Ostwald / Ubbelohde) method; for speed of sound: Sing-around technique in a fixed-path interferometer; for mass density: Vibrating tube method

CCCCn1cc[n+](C)c1.[Br-] [1-butyl-3-methylimidazolium bromide] + CC#N
Details | mass density, [2] [kg/m3] | refractive index, [1] | speed of sound, [2] [m/s] | viscosity, [2] [mPa·s]
288.15 K, m1 = 0.1046 | 796.218 | 1.3492 | 1323.5 | 0.4
288.15 K, m1 = 0.2021 | 803.662 | 1.3528 | 1327.1 | 0.421
288.15 K, m1 = 0.2996 | 810.75 | 1.3557 | 1330.3 | 0.44
298.15 K, m1 = 0.1046 | 785.312 | 1.3449 | 1283.2 | 0.363
298.15 K, m1 = 0.2021 | 792.989 | 1.3479 | 1287.1 | 0.38
298.15 K, m1 = 0.2996 | 800.167 | 1.3509 | 1290.3 | 0.398
308.15 K, m1 = 0.1046 | 774.491 | 1.3402 | 1243.2 | 0.331
308.15 K, m1 = 0.2021 | 782.263 | 1.3429 | 1247.2 | 0.346
308.15 K, m1 = 0.2996 | 789.528 | 1.3462 | 1250.6 | 0.361
318.15 K, m1 = 0.1046 | 763.59 | 1.3359 | 1203.1 | 0.304
318.15 K, m1 = 0.2021 | 771.427 | 1.3381 | 1207.3 | 0.318
318.15 K, m1 = 0.2996 | 778.947 | 1.3402 | 1210.8 | 0.331

CC#N [acetonitrile]
Details | mass density, [4] [kg/m3] | refractive index, [3] | speed of sound, [4] [m/s] | viscosity, [4] [mPa·s]
288.15 K | 787.395 | 1.3461 | 1319.1 | 0.388
298.15 K | 776.615 | 1.3412 | 1278.6 | 0.344
308.15 K | 765.81 | 1.3371 | 1238.3 | 0.313
318.15 K | 754.851 | 1.3327 | 1198.2 | 0.289
